Data taken from article PMC6616128, “Liquiritin, as a Natural Inhibitor of AKR1C1, Could Interfere With the Progesterone Metabolism” (Frontiers in Physiology, 2019).
Changes are numbered by the printed parent chain. Where two headings read alike, the source gives them in different places.

Key:
AKR1C1 [1] = target: T1, AKR1C1 (Homo sapiens, UniProt Q04828); assay: Enzyme activity (NADPH) assay with s-tetralol, recombinant GST-AKR1C1; format: biochemical; set-up: made in house; host or cells: Escherichia coli JM109;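 note: GST-fused AKR1C1 expressed in E. coli and purified by glutathione affinity, control wells received DMSO instead of compound, duplicate samples from a single experiment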
T1 sequence (Q04828 1-323): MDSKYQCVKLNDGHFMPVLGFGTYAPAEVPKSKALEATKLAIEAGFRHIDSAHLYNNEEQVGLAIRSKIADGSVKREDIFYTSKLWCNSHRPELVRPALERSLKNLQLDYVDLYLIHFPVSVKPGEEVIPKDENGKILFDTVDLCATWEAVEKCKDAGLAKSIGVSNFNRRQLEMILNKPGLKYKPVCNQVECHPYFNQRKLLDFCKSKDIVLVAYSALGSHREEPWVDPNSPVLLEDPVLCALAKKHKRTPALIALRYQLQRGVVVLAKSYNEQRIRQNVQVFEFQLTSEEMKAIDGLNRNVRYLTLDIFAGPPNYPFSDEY
Description: GST-tagged recombinant AKR1C isoforms expressed JM109 was grown in Luria-Bertani broth (100 μg⋅ml-1 ampicillin, pH = 7.0) at 37°C with orbital shaking at 220 rpm. When cells achieved an OD600 nm between 0.4 and 0.6, 0.3 mM final concentration of isopropyl β-D-1-thiogalactopyranoside (IPTG) was added to the cultures and incubated for an additional 12 h at 25°C. Cells were harvested by centrifugation at 8000 g for 10 min, and the cell pellets were stored at -80°C for storage. The pellets were resuspended in 1 × PBS, pH = 7.4 and lysed by ultrasonication at ice-cold temperature using an UH-03 union instrument. The purification of glutathione-S-transferase (GST)-fusion AKR1C1, AKR1C2, and AKR1C3 were then carried out using ÄKTA systems from GE Healthcare as described in Handbook. The recombinant proteins were eluted in 50 mM Tris–HCl (pH = 8.0) with 20 mM reduced glutathione, fresh preparedly. Protein concentrations were determined using the Bradford protein assay kit. All proteins were aliquoted and stored at -80°C containing 20% glycerol.
(§1) To screen for the indicated inhibitor, the assay mixture was added with additional DMSO or 2 μM compounds. […] The inhibition patterns were determined by fitting initial velocity and inhibitor concentration into inhibition models using Graphpad Prism 6.0. All inhibition data were obtained from single experiments, with samples conducted in duplicate.
Firstly, we overexpressed recombinant human AKR1C in E. coli in the form of a GST-fusion protein, and then purified it by affinity chromatography on glutathione-Sepharose.
To screen for the inhibitors of AKR1C1, we developed a readily accessible indirect NADPH generating-based assay that can be used for high-throughput inhibitors screening. […] Wells were included containing enzyme and no inhibitor or 2 μM inhibitor.

recombinant AKR1C3 = target: T2, recombinant AKR1C3 (Homo sapiens, UniProt P42330); assay: biochemical
T2 sequence (P42330 1-323): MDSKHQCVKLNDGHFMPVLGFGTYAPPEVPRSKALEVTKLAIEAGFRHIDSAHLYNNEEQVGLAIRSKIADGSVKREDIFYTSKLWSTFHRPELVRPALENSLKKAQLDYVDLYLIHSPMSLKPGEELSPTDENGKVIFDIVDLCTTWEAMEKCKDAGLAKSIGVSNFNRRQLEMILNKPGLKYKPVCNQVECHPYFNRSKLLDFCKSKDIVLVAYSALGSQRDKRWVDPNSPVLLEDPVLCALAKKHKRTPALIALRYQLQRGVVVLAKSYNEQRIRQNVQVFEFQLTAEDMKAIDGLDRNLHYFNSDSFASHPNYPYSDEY
Description: (§2) Protein concentrations were determined using the Bradford protein assay kit.
as §1
(§3) Each experiment was repeated three times and the differences among means were significant determined by Student t-text (^∗p < 0.05; ^∗∗p < 0.01; ^∗∗∗p < 0.001).

AKR1C1 [2] = target: T1, AKR1C1; assay: Progesterone metabolism in HEC-1-B cells transfected with AKR1C1 plasmid; format: cell-based; set-up: expressed in transfected cells; host or cells: HEC-1-B cells; conditions: 50 μM compound, 5 μM progesterone, 6 h
Description: HEC-1-B cell line was purchased from the Cell Bank of the Chinese Academy of Sciences (Shanghai, China). HEC-1-B cell was cultured in DMEM (Gibco, Grand Island, New York, United States) supplemented with 10% fetal bovine serum at 37°C in a 5% CO2 incubator. In all experiments, the cells were used at passages 4 to 10. The cells were transfected with AKR1C1 plasmid using jet PRIME reagent (Polyplus) according to manufacturer’s instructions. […] The culture media were collected immediately and 6 h later. […] A LC-20A High Performance liquid chromatography (Shimadzu, Japan) with UV detector was used for analyzing progesterone cultured from the cells. […] The mobile phase used was a mixture of mobile phase A and mobile phase B in an isocratic program as 3:7 running on an Agilent HC C18 column (150 mm × 4.6 mm, 5 μm particle size) at a constant temperature of 35°C. The flow rate was 1.0 mL/min and the detection wavelength was 245 nm. The whole analytical period was 10 min for each sample. The standard (progesterone) was dissolved in methanol. […]
Therefore, we choose to transfect cells with AKR1C1 gene for cellular study. […] Each experiment was repeated three times and the differences among means were significant determined by Student t-text (^∗p < 0.05; ^∗∗p < 0.01; ^∗∗∗p < 0.001).

recombinant AKR1C2 = target: T3, recombinant AKR1C2 (Homo sapiens, UniProt P52895); assay: Enzyme activity (NADPH) assay with s-tetralol, recombinant GST-AKR1C2; format: biochemical; conditions: s-tetralol 103.30 μM as substrate
T3 construct: made in house; host or cells: Escherichia coli JM109
T3 sequence (P52895 1-323): T1 sequence (Q04828 1-323) with T38V, R47H, L54V, C87S, V151M, R170H, Q172L
Description: as §2, §1, §3

remaining activity at 2 µM (AKR1C1 [1]; 2 μM compound, Figure 1A, read-out: % Enzyme Activity): 31%
slope (AKR1C1 [1]; 2 μM compound, Supplementary Table 1, CON 0.0122): 0.003777
enzyme activity (AKR1C1 [1]; 2 μM compound, Supplementary Table 1, CON 192.295568): 59.5351 nmol/min/mg
remaining activity at 2 µM (AKR1C1 [1]; 2 μM compound, Supplementary Table 1, CON = 1, read-out: ratio (activity relative to CON)): 31%
inhibition at 2 µM (AKR1C1 [1]; 2 μM compound, Supplementary Table 1, read-out: % inhibition): 69%
inhibition at 2 µM (AKR1C1 [1]; 2 μM compound, text on Figure 1A, read-out: inhibitory effect over AKR1C1 enzyme activity (% inhibition)): 34%
inhibition pattern (AKR1C1 [1]; s-tetralol concentration variation): competitive inhibitor
IC50 ratio 1C1/1C2 (AKR1C1 [1]; selectivity AKR1C1 vs AKR1C2): 1.03
IC50 ratio 1C1/1C3 (AKR1C1 [1]; selectivity AKR1C1 vs AKR1C3): 0.17
IC50 (recombinant AKR1C3): 3720 ± 90 nM
inhibition at 50 µM (AKR1C1 [2]): 85%
IC50 (recombinant AKR1C2): 610 ± 50 nM
Compound: O=C1C[C@@H](c2ccc(O[C@@H]3O[C@H](CO)[C@@H](O)[C@H](O)[C@H]3O)cc2)Oc2cc(O)ccc21 [Liquiritin]
